Paper PMC8003416, “Modulation of Human Phenylalanine Hydroxylase by 3-Hydroxyquinolin-2(1H)-One Derivatives” (Biomolecules, 2021)

Key:
[1] = Alamar Blue cell viability assay; format: cell-based; details: human, HEK-293T cells
Protocol: (§1) Cytotoxicity of selected 3HQs was assessed in HEK-293T cells using the Alamar Blue assay as a general cell viability endpoint method that monitors the cellular metabolic state, and the propidium iodide (PI) exclusion assay was used to evaluate membrane integrity essentially as described. The 3HQs were tested at a final concentration of 50 and 100 μM (two independent assays; five replicates each). Control assays were performed using 1% DMSO (negative control), or SDS at 1 mg/mL as a positive control of cell death in the PI assay. HEK-293T cells were seeded in sterile flat bottom 96-well tissue culture plates, in RPMI 1640 culture medium, supplemented with 10% fetal bovine serum, 100 units/mL of penicillin G (sodium salt), 100 μg/mL of streptomycin sulphate and 2 mM L-glutamine, at a cell density of 2 × 10^4 cells per well. Cells were incubated at 37 °C and 5% CO2. The culture medium was replaced by fresh medium (supplemented as above) containing the different 3HQs to be analyzed. After 24 h incubation, the culture medium was replaced by […] PI (Sigma-Aldrich) in fresh medium (stock solution 1.5 mM in DMSO) and fluorescence was measured (λexc 485 nm, λem 590 nm) in a FLUOstar Omega microplate reader. The Alamar Blue assay was performed by replacing the culture medium with fresh medium containing 5 mM resazurin (Invitrogen). The cells were further incubated for 3 h and fluorescence was measured (λexc 530 nm, λem 590 nm) in a FLUOstar Omega microplate reader (BMG Labtech). The relative PI uptake and cell viability (%) were calculated using Equations (3) and (4), respectively. Relative PI uptake = Fluorescence intensitysample/Fluorescence intensitynegative control(3) Relative cell viability (%) = Fluorescence intensitysample/Fluorescence intensitycontrol × 100(4)

HEK-293T cells = experiment: Propidium iodide exclusion assay (membrane integrity); format: cell-based; details: 100 μM, 24 h; negative control 1.0 ± 0.1
Protocol: as §1, with “HEK-293T cells were seeded in sterile flat bottom 96-well tissue culture plates, in RPMI 1640 culture medium, supplemented with 10% fetal bovine serum, 100 units/mL of penicillin G (sodium salt), 100 μg/mL of streptomycin sulphate and 2 mM L-glutamine, at a cell density of 2 × 10^4 cells per well. Cells were incubated at 37 °C and 5% CO2.” left out, “The Alamar Blue assay was performed by replacing the culture medium with fresh medium containing 5 mM resazurin (Invitrogen).” left out

[2] = molecular target: T1, hPAH-RD^1–120 (N-terminal regulatory domain) (Homo sapiens, UniProt P00439); experiment: Light scattering assay of hPAH-RD1–120 self-association
T1 construct: consisting solely of the N-terminal regulatory domain (amino acids 1–120); made in house; host or cells: E. coli TB1
T1 sequence (P00439 1-120): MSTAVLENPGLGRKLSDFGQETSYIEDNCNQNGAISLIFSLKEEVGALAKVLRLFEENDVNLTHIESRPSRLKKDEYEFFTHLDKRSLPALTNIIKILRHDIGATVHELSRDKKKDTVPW
Protocol: (§2) Self-assembly of the dimeric forms of hPAH-RD^1–120 was followed in real-time at 25 °C upon cleavage of MBP-FXa-hPAH-RD^1–120 with FXa (New England Biolabs) to release the MBP fusion partner. Assays (n = 3) were performed in the absence or presence of tested compounds as described in [17]. Briefly, FXa (at a final ratio 1:150 (w/w) relative to the fusion protein) was added to the reaction mixture containing the MBP-FXa-hPAH-RD^1–120 fusion protein (0.74 mg/mL), 20 mM Na-HEPES, 100 mM NaCl, pH 7.0 and tested 3HQ (100 μM). The increase in absorbance at 350 nm was followed for 180 min on a FLUOstar Omega (BMG Labtech) microplate reader. A shaking step was introduced before each measurement. Appropriate control assays were performed and included: (i) a positive control consisting of MBP-FXa-hPAH-RD^1–120 in the presence of FXa, 1% DMSO and in the absence of compounds; and (ii) a negative control consisting of MBP-FXa-hPAH-RD^1–120 in the absence of FXa and compounds. For all the assays, aliquots of the aggregation reaction were collected at the end of the reaction (180 min) and analyzed by SDS-PAGE to confirm the extent of MBP cleavage by FXa. In addition, the effect of tested compounds on FXa activity was monitored using the synthetic FXa substrate Boc–Ile–Glu-Gly–Arg–AMC (t-(Butyloxycarbonyl)-isoleucylglutamylglycylarginyl-7-amido-4-methylcoumarin; from Bachem). Assays (n = 3) were performed in a 96-well plate, in a final volume of 200 μL containing 20 mM Na-HEPES, 100 mM NaCl, pH 7.0, 5 μg/mL of FXa, 50 μM of Boc–Ile-Glu–Gly–Arg–AMC and 100 μM of 3HQ derivatives. Fluorescence was measured in real-time (λexc 360 nm and λem 460 nm) during 30 min, at 25 °C. Controls were performed using substrate alone with 1% DMSO (negative control) and FXa with no compounds and 1% DMSO (positive control).

Factor Xa (FXa) = molecular target: T2, Factor Xa (FXa) (Bos taurus, UniProt P00743); experiment: Factor Xa activity control with Boc-Ile-Glu-Gly-Arg-AMC; format: biochemical; details: 100 μM compound; for FXa relative (residual) enzyme activity: 1% DMSO control = 100%; for Factor Xa Abs/min: control 597 ± 16
T2 construct: purchased New England Biolabs
T2 sequence (P00743 234-492 limits assumed): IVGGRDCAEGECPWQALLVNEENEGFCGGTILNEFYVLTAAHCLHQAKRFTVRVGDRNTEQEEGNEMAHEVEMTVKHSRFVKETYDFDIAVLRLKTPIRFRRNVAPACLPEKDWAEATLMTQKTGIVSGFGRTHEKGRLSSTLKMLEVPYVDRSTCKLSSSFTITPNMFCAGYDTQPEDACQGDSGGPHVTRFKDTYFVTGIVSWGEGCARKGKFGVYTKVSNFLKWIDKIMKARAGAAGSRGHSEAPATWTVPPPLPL
T2 sequence (P00743 41-180 partner limits assumed): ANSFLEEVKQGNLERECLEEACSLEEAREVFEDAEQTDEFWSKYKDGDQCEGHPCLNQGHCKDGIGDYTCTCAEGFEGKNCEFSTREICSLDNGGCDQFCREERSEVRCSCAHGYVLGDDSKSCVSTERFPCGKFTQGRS
Protocol: as §2

Row | effect on hPAH-RD^1–120 aggregation ([2]; 1 mM L-Phe) | Compound | viability at 24 h, 50 µM [1] [%] | viability at 24 h, 100 µM [1] [%] | relative PI uptake (HEK-293T cells) | effect on hPAH-RD^1–120 aggregation ([2]; 100 μM, 180 min, 25 °C) | FXa relative (residual) enzyme activity (Factor Xa (FXa)) [%] | Factor Xa Abs/min (Factor Xa (FXa)) [Abs/min]
1 | – | COC(=O)CNC(=O)c1c(O)c(=O)[nH]c2ccc(OC(F)(F)F)cc12 [Compound 11] | 94 ± 3 | 101 ± 5 | 1.0 ± 0.1 | no direct evidence of a direct binding to hPAH-RD^1–120 was obtained | 69 | 407 ± 8
2 | – | COC(=O)CC[C@H](NC(=O)c1c(O)c(=O)[nH]c2ccc(OC(F)(F)F)cc12)C(=O)OC [Compound 9] | 85 ± 32 | 82 ± 13 | 1.0 ± 0.0 | – | 77 | 465 ± 29
3 | completely blocked it | N[C@@H](Cc1ccccc1)C(=O)O [L-Phe, L-phenylalanine, reference compound] | – | – | – | only slightly prevented hPAH-RD^1–120 aggregation | – | –
